Results on 27 compounds are retold here after patent US11795169B2, “MAP4K4 inhibitors” (IMPERIAL COLLEGE INNOVATIONS LIMITED, priority 2017, dated 2023).

pIC50: −log10 of the molar value.

The assay deals with human MAP4K4 kinase domain (Homo sapiens (Human), UniProt O95819). Kind of assay: MAP4K4 kinase activity, CisBio HTRF Transcreener ADP assay. The assay is classed as biochemical. The conditions noted are these: ATP at Km (10 μM), 0.5 nM kinase domain, 2 h; read-out: MAP4K4. From the text: Compounds of the present invention were screened for their inhibitory activity against MAP4K4, versus selected off-target hits found with early members of this chemical series. MAP4K4 kinase activity was monitored using the CisBio HTRF Transcreener ADP assay, acompetitive immunoassay with a reproducible Z′>0.6. In the detection step, endogenous ADP and d2-labeled ADP compete for binding an anti-ADP monoclonal antibody labelled with Eu^3+ cryptate. A ratiometric fluorescent read-out is used at 665 and 620 nm. […] Assays were run in Greiner low volume plates with a final reaction volume of 10 μl. The MAP4K4 inhibition data are provided in Table 33 below for selected compounds of the present invention. The data has been categorised based on the IC50 value of the compound as “A”, “B” or “C”.
human MAP4K4 kinase domain, sequence (O95819 25-289): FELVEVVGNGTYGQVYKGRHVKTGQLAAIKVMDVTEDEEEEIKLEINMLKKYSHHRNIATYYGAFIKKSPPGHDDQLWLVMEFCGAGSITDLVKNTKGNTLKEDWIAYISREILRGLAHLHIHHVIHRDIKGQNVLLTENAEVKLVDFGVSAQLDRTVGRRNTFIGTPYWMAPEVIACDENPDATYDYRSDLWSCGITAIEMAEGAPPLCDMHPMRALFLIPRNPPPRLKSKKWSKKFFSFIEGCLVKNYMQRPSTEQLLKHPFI
(Time-resolved FRET reads energy transfer from a long-lived donor to a nearby acceptor.)
Regarding `O=C(Nc1ccc(-c2cn(-c3ccccc3)c3nc[nH]c(=O)c23)cc1)N1CCC(O)C1` (racemic) [compound 39], the pIC50 was at least 7.00.
The result for `O=C(O)c1ccc(-n2cc(-c3ccccc3)c3c(=O)[nH]cnc32)cc1` [Ex-1, 4-(4-Oxo-5-phenyl-3,4-dihydro-pyrrolo[2,3-d]pyrimidin-7-yl)-benzoic acid] reads 6.00 to 7.00; that for `NC(=O)c1cccc(-n2cc(-c3ccccc3)c3c(=O)[nH]cnc32)c1` [Ex-2], at least 7.00.
Next, `CS(=O)(=O)c1ccc(-n2cc(-c3ccccc3)c3c(=O)[nH]cnc32)cc1` [Ex-3]: below 6.00.
The result for `O=c1[nH]cnc2c1c(-c1ccccc1)cn2-c1ccc(Cn2ccnc2)cc1` [Ex-4] reads below 6.00; that for `CNC(=O)c1ccc(-n2cc(-c3ccccc3)c3c(=O)[nH]cnc32)cc1` [Ex-5, N-Methyl-4-(4-oxo-5-phenyl-3,4-dihydro-pyrrolo[2,3-d]pyrimidin-7-yl)-benzamide], below 6.00; that for `NC(=O)c1ccc(-n2cc(-c3ccccc3)c3c(=O)[nH]cnc32)cc1` [Ex-6], 6.00 to 7.00.
Regarding `CC(C)(O)COc1ccc(-c2cn(-c3ccccc3)c3nc[nH]c(=O)c23)cc1C#N` [Ex-7, 2-(2-Hydroxy-2-methylpropoxy)-5-(4-oxo-7-phenyl-4,7-dihydro-3H-pyrrolo[2,3-d]pyrimidin-5-yl)benzonitrile], the pIC50 was at least 7.00.
Turning to `N#Cc1cccc(-c2cn(-c3ccccc3)c3nc[nH]c(=O)c23)c1` [Ex-8], the pIC50 was at least 7.00.
The result for `CC(=O)Nc1ccc(-c2cn(-c3ccccc3)c3nc[nH]c(=O)c23)cc1` [Ex-9] reads at least 7.00; that for `CCOC(=O)Cc1ccc(-c2cn(-c3ccccc3)c3nc[nH]c(=O)c23)cc1` [Ex-10, [4-(4-oxo-7-phenyl-4,7-dihydro-3H-pyrrolo[2,3-d]pyrimidin-5-yl)-phenyl]-acetic acid ethyl ester], at least 7.00.
The result for `N#Cc1ccc(-c2cn(-c3ccccc3)c3nc[nH]c(=O)c23)cc1` [Ex-11, 4-(4-oxo-7-phenyl-4,7-dihydro-3H-pyrrolo[2,3-d]pyrimidin-5-yl)-benzonitrile] reads at least 7.00.
Next, `CC(=O)Nc1cccc(-c2cn(-c3ccccc3)c3nc[nH]c(=O)c23)c1` [Ex-12]: 6.00 to 7.00; `O=c1[nH]cnc2c1c(-c1ccc(Cn3ccnc3)cc1)cn2-c1ccccc1` [Ex-13]: at least 7.00.
On to `O=C(CO)Nc1ccc(-c2cn(-c3ccccc3)c3nc[nH]c(=O)c23)cc1` [Ex-14], for which the pIC50 was at least 7.00.
Next, `CN(C)CCOc1ccc(-c2cn(-c3ccccc3)c3nc[nH]c(=O)c23)cc1` [Ex-15]: at least 7.00.
The result for `O=C(CN1CCOCC1)Nc1ccc(-c2cn(-c3ccccc3)c3nc[nH]c(=O)c23)cc1` [Ex-16] reads at least 7.00; that for `CN1CCN(CC(=O)Nc2ccc(-c3cn(-c4ccccc4)c4nc[nH]c(=O)c34)cc2)CC1` [Ex-17], at least 7.00.
Next, `CN1CCN(CC(=O)Nc2ccc(-c3cn(-c4cccc(F)c4)c4nc[nH]c(=O)c34)cc2)CC1` [Ex-18]: at least 7.00.
Regarding `O=C1CCCN1c1ccc(-c2cn(-c3ccccc3)c3nc[nH]c(=O)c23)cc1` [Ex-19], the pIC50 was at least 7.00.
The result for `O=C1CCCCN1c1ccc(-c2cn(-c3ccccc3)c3nc[nH]c(=O)c23)cc1` [Ex-20] reads 6.00 to 7.00; that for `CN(C)CCNC(=O)c1cccc(-c2cn(-c3ccccc3)c3nc[nH]c(=O)c23)c1` [Ex-21], below 6.00; that for `COc1ccc(-c2cn(-c3ccccc3)c3nc[nH]c(=O)c23)cc1` [Ex-23], at least 7.00.
The result for `CN(C)CC(=O)Nc1cccc(-c2cn(-c3ccccc3)c3nc[nH]c(=O)c23)c1` [Ex-24] reads below 6.00.
The result for `O=C1CCCN1c1ccc(-c2cn(-c3cccc(F)c3)c3nc[nH]c(=O)c23)cc1` [Ex-25] reads at least 7.00; that for `CN(C)CCCOc1ccc(-c2cn(-c3ccccc3)c3nc[nH]c(=O)c23)cc1` [Ex-26], at least 7.00; that for `COC(COc1ccc(-c2cn(-c3ccccc3)c3nc[nH]c(=O)c23)cc1)CN1CCOCC1` (stereo not drawn) [Ex-28], at least 7.00.
